Columns and labels:
[1] = biological target: T1, CYP3A4 (Homo sapiens, UniProt P08684); assay: CYP inhibition assay in human liver microsome, CYP3A4; format: in vitro ADME; conditions: human, human liver microsomes, probe midazolam 5 μM, substrate midazolam 5 μM, third value of 2C9/2D6/3A4
T1 construct: tissue BD-Gentest 452117; host or cells: human liver microsomes
Protocol: (§1) This is a high throughput screening assay used for assessment of reversible inhibition of CYP2C9, CYP2D6, and CYP3A4 activity of test compounds in human liver microsome (HLM) in early discovery stage.
(§2) 10 mM DMSO stock solutions of test compounds were diluted in DMSO to generate 2 mM intermediate stock solution. 250 nL, of intermediate stock solution were transferred in duplicate into 3 separate 384 well microtitre plates (assay-ready plates). A mixture of HLM and each substrate was made up. 45 μL of HLM substrate mix was then transferred to each well of an assay ready plate and mixed. The negative (solvent) and positive controls (standard inhibitor for each CYP) were included in each assay ready plate. The assay ready plate was warmed to 37° C. in an incubator over 10 minutes. 5 μL pre-warmed NADPH regenerating system was added to each incubation well to start the reaction. Final incubation volume was 50 μL. The assay plate then was placed back in the 37° C. incubator. After incubation (10 minutes for CYP2D6) for 5 minutes, incubates were quenched by addition of 50 μL 100% acetonitrile containing internal standards (400 ng/mL 13C6-4′-OH-Diclofenac, 20 ng/mL D3-Dextrorphan and 20 ng/mL D4-1′OH-Midazolam). The supernatants were collected for RapidFire/MS/MS analysis.
(§3) RapidFire online solid phase extraction/sample injection system (Agilent) coupled with API4000 triple quadrupole mass spectrometer (AB Sciex) were used for sample analysis. The mobile phase composed of acetonitrile and water supplemented with 0.1% formic acid. A C4 solid phase extraction cartridge is used for sample separation. MS detection is achieved in positive ion MRM mode.
(§4) Peak areas for substrate, metabolite and internal standard are determined using the RapidFire integrator software (version 3.6.12009.12296). Peak area ratios (PAR) of metabolite and internal standard (stable-labelled metabolite) are then calculated. The measurement window for each experiment is then defined:
(§5) PAR (0% activity)=average PAR for all incubations containing concentrated inhibitor; Par (100% activity)=average PAR for all incubations containing no inhibitor (DMSO controls); % Activity (test inhibitor)=[PAR (test inhibitor)−PAR (0% activity)]/[PAR (100% activity)−PAR (0% activity)]; % Inhibition (test inhibitor)=100-% Activity (test inhibitor).

[2] = biological target: T2, CYP2C9 (Homo sapiens, UniProt P11712); assay: CYP inhibition assay in human liver microsome, CYP2C9; format: in vitro ADME; conditions: human, human liver microsomes, probe diclofenac 5 μM, substrate diclofenac 5 μM, first value of 2C9/2D6/3A4
T2 construct: tissue BD-Gentest 452117; host or cells: human liver microsomes
Protocol: as §1, §2, §3, §4, §5

[3] = biological target: T3, human TLR8 (Homo sapiens, UniProt Q9NR97); assay: HEK293-Blue-hTLR-8 cells assay (SEAP reporter, R848 stimulation); format: cell-based; conditions: HEK293-Blue-hTLR8 cells, R848, 20 hrs; read-out: HEK/hTLR8 IC50
T3 construct: host or cells: HEK293 (HEK-Blue hTLR8)
T3 sequence (Q9NR97 27-1041): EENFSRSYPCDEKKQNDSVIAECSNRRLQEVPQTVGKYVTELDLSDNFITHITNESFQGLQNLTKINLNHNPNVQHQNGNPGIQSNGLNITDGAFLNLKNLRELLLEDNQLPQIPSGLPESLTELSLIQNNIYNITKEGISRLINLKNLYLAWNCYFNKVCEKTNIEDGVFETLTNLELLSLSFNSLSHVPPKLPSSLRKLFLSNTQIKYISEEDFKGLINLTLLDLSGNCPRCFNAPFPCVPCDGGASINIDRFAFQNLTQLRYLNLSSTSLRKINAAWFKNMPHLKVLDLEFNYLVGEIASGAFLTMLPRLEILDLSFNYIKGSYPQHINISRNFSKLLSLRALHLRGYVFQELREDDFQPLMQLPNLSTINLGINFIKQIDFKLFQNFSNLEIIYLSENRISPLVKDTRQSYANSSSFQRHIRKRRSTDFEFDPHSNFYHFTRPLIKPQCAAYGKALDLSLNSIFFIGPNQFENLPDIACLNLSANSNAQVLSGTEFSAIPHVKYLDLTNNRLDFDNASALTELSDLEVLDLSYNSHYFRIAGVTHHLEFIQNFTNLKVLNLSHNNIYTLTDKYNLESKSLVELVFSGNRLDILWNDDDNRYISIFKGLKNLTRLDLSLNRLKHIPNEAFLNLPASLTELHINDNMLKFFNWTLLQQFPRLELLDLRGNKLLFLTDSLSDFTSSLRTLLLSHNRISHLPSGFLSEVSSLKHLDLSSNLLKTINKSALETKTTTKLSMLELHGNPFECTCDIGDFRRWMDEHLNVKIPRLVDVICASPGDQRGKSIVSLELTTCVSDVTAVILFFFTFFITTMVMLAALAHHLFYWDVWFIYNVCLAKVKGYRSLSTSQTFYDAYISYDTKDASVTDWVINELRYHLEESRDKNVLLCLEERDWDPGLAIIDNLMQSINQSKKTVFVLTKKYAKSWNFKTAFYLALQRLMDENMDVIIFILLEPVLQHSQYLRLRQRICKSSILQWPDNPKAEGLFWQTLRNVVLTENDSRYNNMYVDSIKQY
Summary of the method: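 HEK293-Blue-hTLR8 cells (NF-κB/AP-1-driven SEAP) incubated 20 h at 37° C with serially diluted compound (1% DMSO) plus R848 stimulation. Supernatant SEAP measured with QUANTI-Blue, 2 h at 37° C, absorbance 620–655 nm.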

T2 sequence (P11712 whole entry): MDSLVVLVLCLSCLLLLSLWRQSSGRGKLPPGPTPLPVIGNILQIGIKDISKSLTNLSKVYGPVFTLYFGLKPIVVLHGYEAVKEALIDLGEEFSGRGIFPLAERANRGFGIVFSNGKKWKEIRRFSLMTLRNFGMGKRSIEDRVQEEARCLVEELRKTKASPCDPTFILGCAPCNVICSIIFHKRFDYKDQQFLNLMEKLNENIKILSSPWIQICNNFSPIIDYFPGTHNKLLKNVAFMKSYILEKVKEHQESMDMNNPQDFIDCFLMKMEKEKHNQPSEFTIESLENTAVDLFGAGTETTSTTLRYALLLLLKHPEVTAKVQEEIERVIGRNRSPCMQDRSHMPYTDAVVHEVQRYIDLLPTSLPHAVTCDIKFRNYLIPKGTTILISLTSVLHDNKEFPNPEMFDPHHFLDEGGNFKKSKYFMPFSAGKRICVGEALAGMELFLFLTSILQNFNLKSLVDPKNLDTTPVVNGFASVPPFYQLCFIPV
T1 sequence (P08684 whole entry): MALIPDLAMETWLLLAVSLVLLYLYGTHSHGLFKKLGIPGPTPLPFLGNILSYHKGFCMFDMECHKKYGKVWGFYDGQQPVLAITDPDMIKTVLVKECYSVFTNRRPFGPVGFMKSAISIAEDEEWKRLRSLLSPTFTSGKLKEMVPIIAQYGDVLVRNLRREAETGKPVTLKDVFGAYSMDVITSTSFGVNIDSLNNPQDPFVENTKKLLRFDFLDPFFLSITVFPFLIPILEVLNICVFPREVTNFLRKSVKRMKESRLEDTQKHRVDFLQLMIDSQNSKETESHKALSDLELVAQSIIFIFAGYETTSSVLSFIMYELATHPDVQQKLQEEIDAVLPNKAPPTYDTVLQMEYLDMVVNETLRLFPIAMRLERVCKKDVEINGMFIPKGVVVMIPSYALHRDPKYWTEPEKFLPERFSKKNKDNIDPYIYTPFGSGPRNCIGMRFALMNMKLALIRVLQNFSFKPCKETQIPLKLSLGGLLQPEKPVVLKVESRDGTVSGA

Row | Structure (SMILES) | inhibition at 5 min, 10 µM [1] | inhibition at 5 min, 10 µM [2] | IC50 [3]
1 | C[C@@H]1CN(c2ccc(C#N)c3ncccc23)C[C@H](CN2CCC(c3cccc(N4CCNCC4)c3)C2)O1 (stereo partly drawn) [Example 1, 5-[(2R,6S)-2-methyl-6-[[3-(3-piperazin-1-ylphenyl)pyrrolidin-1-yl]methyl]morpholin-4-yl]quinoline-8-carbonitrile] | 14% | -7% | 40 nM
2 | C[C@@H]1CN(c2ccc(C#N)c3ncccc23)C[C@H](CN2CCC(c3cccc(C4CCNCC4)c3)CC2)O1 [Example 2, 5-[(2R,6S)-2-methyl-6-[[4-[3-(4-piperidyl)phenyl]-1-piperidyl]methyl]morpholin-4-yl]quinoline-8-carbonitrile] | 18% | 2% | 26 nM
3 | C[C@@H]1CN(c2ccc(C#N)c3ncccc23)C[C@H](CN2CC(c3ccc(N4CCNCC4)cc3)C2)O1 [Example 3, 5-[(2R,6S)-2-methyl-6-[[3-(4-piperazin-1-ylphenyl)azetidin-1-yl]methyl]morpholin-4-yl]quinoline-8-carbonitrile] | 4.5% | -18% | 9 nM
4 | C[C@@H]1CN(c2ccc(C#N)c3ncccc23)C[C@H](CN2CC(c3cccc(N4CCNCC4)c3)C2)O1 [Example 4, 5-[(2R,6S)-2-methyl-6-[[3-(3-piperazin-1-ylphenyl)azetidin-1-yl]methyl]morpholin-4-yl]quinoline-8-carbonitrile] | 0.5% | 5.5% | 17 nM
5 | CO[C@H]1CN(c2cc(C)nc(N3CCN(C[C@H]4CN(c5ccc(C#N)c6nccnc56)C[C@@H](C)O4)CC3)n2)C[C@@H]1N [Example 104, 8-[(2S,6R)-2-[[4-[4-[(3S,4S)-3-amino-4-methoxy-pyrrolidin-1-yl]-6-methyl-pyrimidin-2-yl]piperazin-1-yl]methyl]-6-methyl-morpholin-4-yl]quinoxaline-5-carbonitrile] | -12% | -1% | 1 nM
6 | CO[C@H]1CN(c2nc(C)cc(N3CCN(C[C@H]4CN(c5ccc(C#N)c6nccnc56)C[C@@H](C)O4)CC3)n2)C[C@@H]1N [Example 106, 8-[(2S,6R)-2-[[4-[2-[(3S,4S)-3-amino-4-methoxy-pyrrolidin-1-yl]-6-methyl-pyrimidin-4-yl]piperazin-1-yl]methyl]-6-methyl-morpholin-4-yl]quinoxaline-5-carbonitrile] | 20.5% | 17% | 1 nM
7 | C[C@@H]1CN(c2ccc(C#N)c3nccnc23)C[C@H](CN2CCN(c3ccnc(N4C[C@H](N)[C@@H](F)C4)n3)CC2)O1 [Example 107, 8-[(2S,6R)-2-[[4-[2-[(3S,4S)-3-amino-4-fluoro-pyrrolidin-1-yl]pyrimidin-4-yl]piperazin-1-yl]methyl]-6-methyl-morpholin-4-yl]quinoxaline-5-carbonitrile] | 34.5% | 19.5% | 1 nM
8 | C[C@@H]1CN(c2ccc(C#N)c3ncccc23)C[C@H](CN2CCN(c3ccnc(N4C[C@H](N)[C@@H](F)C4)n3)CC2)O1 [Example 110, 5-[(2S,6R)-2-[[4-[2-[(3S,4S)-3-amino-4-fluoro-pyrrolidin-1-yl]pyrimidin-4-yl]piperazin-1-yl]methyl]-6-methyl-morpholin-4-yl]quinoline-8-carbonitrile] | 44% | 22% | 2 nM
9 | Cc1cc(N2CCN(C[C@H]3CN(c4ccc(C#N)c5nccnc45)C[C@@H](C)O3)CC2)nc(N2CC(N)C2)n1 [Example 112, 8-[(2S,6R)-2-[[4-[2-(3-aminoazetidin-1-yl)-6-methyl-pyrimidin-4-yl]piperazin-1-yl]methyl]-6-methyl-morpholin-4-yl]quinoxaline-5-carbonitrile] | -5% | 0.5% | 1 nM
10 | Cc1cc(N2CCNCC2)nc(N2CCN(C[C@H]3CN(c4ccc(C#N)c5nccnc45)C[C@@H](C)O3)CC2)n1 [Example 114, 8-[(2R,6S)-2-methyl-6-[[4-(4-methyl-6-piperazin-1-yl-pyrimidin-2-yl)piperazin-1-yl]methyl]morpholin-4-yl]quinoxaline-5-carbonitrile] | 16% | 7.5% | 1 nM
11 | Cc1ccc(N2C[C@H](CN3CCN(c4nccc(N5CCNCC5)n4)CC3)O[C@H](C)C2)c2nccnc12 [Example 116, (2R,6S)-2-methyl-4-(8-methylquinoxalin-5-yl)-6-[[4-(4-piperazin-1-ylpyrimidin-2-yl)piperazin-1-yl]methyl]morpholine] | 8% | -8.5% | 5 nM
12 | Cc1ccc(N2C[C@H](CN3CCN(c4ccnc(N5CCNCC5)n4)CC3)O[C@H](C)C2)c2nccnc12 [Example 117, (2R,6S)-2-methyl-4-(8-methylquinoxalin-5-yl)-6-[[4-(2-piperazin-1-ylpyrimidin-4-yl)piperazin-1-yl]methyl]morpholine] | 10% | 8.5% | 7 nM
13 | C[C@@H]1CN(c2ccc(C#N)c3nccnc23)C[C@H](CN2CCN(c3nccc(N4C[C@@H](N)[C@H](F)C4)n3)CC2)O1 [Example 119, 8-[(2S,6R)-2-[[4-[4-[(3R,4R)-3-amino-4-fluoro-pyrrolidin-1-yl]pyrimidin-2-yl]piperazin-1-yl]methyl]-6-methyl-morpholin-4-yl]quinoxaline-5-carbonitrile] | 23.5% | -12.5% | 1 nM
14 | [2H]c1nc2c(C#N)ccc(N3C[C@H](CN4CCN(c5nc(C)cc(N6CC(N)C6)n5)CC4)O[C@H](C)C3)c2nc1[2H] [Example 124, 8-[(2S,6R)-2-[[4-[4-(3-aminoazetidin-1-yl)-6-methyl-pyrimidin-2-yl]piperazin-1-yl]methyl]-6-methyl-morpholin-4-yl]-2,3-dideuterio-quinoxaline-5-carbonitrile] | 16% | -2% | 1 nM
15 | [2H]c1ccc2c(N3C[C@H](CN4CCN(c5ccc(N6CC(C)(N)C6)nc5)CC4)O[C@H](C)C3)ccc(C#N)c2n1 [Example 132, 5-[(2S,6R)-2-[[4-[6-(3-amino-3-methyl-azetidin-1-yl)-3-pyridyl]piperazin-1-yl]methyl]-6-methyl-morpholin-4-yl]-2-deuterio-quinoline-8-carbonitrile] | 7.5% | -1% | 16 nM

Reference: US20210395239A1 (Hoffmann-La Roche Inc., priority 2018, published 2021)
